Our source for the IC50 values is ChEMBL document CHEMBL3639058, “Glycine compound” (2014).

The target in assay [1] is T1, Amine oxidase [copper-containing] 3 (Rattus norvegicus, UniProt O08590).
T1 sequence (O08590 whole entry): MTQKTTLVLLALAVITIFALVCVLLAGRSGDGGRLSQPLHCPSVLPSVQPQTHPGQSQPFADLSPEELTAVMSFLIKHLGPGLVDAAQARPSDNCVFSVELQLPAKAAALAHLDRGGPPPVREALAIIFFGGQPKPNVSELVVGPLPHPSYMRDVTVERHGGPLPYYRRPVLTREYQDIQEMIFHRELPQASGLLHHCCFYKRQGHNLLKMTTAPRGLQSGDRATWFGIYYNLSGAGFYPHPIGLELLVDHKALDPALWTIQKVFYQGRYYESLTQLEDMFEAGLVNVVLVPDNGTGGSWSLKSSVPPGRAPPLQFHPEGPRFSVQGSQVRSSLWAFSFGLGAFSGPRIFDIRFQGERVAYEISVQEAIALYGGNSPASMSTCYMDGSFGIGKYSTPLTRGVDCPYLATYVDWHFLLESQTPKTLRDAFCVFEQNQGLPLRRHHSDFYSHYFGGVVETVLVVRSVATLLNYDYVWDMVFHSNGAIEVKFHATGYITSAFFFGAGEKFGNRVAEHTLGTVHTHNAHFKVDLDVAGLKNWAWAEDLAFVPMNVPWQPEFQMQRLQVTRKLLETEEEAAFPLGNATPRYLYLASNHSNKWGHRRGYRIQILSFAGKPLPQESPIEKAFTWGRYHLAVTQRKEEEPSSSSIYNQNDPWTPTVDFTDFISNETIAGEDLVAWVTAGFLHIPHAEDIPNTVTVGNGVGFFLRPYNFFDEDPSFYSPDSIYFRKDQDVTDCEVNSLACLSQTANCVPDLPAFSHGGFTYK
Kind of assay: (§1) Inhibition Assay: A rat VAP-enzyme 1 (SSAO) activity was measured by a radiochemistry-enzymatic assay using 14C-benzylamine as an artificial substrate. An enzyme suspension prepared from CHO (Chinese Hamster Ovary) cells stably expressing a rat VAP-enzyme 1 (SSAO) was preincubated with the compound of the present invention in a 96-well microplate at room temperature for 30 minutes. Subsequently, the enzyme suspension was incubated with 14C-benzylamine (a final concentration of 1×10−5 mol/L) to a final volume of […] at 37° C. for 1 hour. The enzymatic reaction was stopped by the addition of 2 mol/L (50 μL) of citric acid. The oxidation products were extracted directly in a 200-μL toluene scintillator, and the radioactivity was measured with a scintillation spectrometer.

Assay [2] concerns the target T2, Amine oxidase [copper-containing] 3 (Homo sapiens, UniProt Q16853).
T2 sequence (Q16853 whole entry): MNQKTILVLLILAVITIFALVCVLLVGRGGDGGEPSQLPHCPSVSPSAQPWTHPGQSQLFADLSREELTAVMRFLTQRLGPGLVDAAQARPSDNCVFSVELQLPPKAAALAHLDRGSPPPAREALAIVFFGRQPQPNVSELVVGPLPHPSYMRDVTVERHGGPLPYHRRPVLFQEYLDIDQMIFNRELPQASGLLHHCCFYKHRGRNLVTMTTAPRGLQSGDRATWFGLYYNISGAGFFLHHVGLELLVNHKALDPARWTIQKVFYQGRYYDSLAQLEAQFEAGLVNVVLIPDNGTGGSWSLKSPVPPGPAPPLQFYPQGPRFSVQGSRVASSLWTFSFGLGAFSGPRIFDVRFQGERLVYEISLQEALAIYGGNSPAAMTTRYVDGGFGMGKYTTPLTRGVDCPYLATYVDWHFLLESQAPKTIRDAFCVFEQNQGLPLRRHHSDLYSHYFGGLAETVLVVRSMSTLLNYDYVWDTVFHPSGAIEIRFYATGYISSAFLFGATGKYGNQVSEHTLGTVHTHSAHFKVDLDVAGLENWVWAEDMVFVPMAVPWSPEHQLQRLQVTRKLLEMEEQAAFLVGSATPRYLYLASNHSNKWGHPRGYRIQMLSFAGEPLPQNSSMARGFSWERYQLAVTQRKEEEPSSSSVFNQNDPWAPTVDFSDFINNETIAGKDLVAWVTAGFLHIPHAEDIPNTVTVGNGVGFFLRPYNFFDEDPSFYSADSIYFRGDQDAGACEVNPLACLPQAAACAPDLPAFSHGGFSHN
The description is as §1, with “human VAP-1 enzyme” for “rat VAP-enzyme 1”.

Broadly, the IC50 is the concentration that inhibits the measured activity by half.

The structures appear in SMILES notation.

Turning to `Cc1cc(CCC(=O)O)cnc1N1CCN(c2ncc(-c3cccc(CN(C)C(=O)CN)c3)cn2)CC1`, the half-inhibitory concentration (IC50) in assay [1] amounted to 5.2 nM; in assay [2], 9.4 nM.

In the case of `C[C@@H]1CN(c2ncc(-c3cccc(CN(C)C(=O)CN)c3)cn2)C[C@H](C)O1`, in assay [1], the IC50 was 61 nM.
